Measurements taken from US20260176289A1, “SMALL MOLECULE INHIBITORS OF KRAS PROTEINS” (Merck Sharp & Dohme LLC, priority 2022, published 2026).
pIC50: −log10 of the molar value.

Experiments:
Type in all cases: biochemical
[1] = biological target: T1, KRAS G12D (amino acids 1-169) (Homo sapiens, UniProt P01116, G12D); test: SOS-catalyzed nucleotide exchange assay (Procedure B, BODIPY FL GDP displacement), KRAS G12D; conditions: read-out: KRAS G12D GNE IC50
T1 construct: made in house; host or cells: E. coli
T1 sequence (P01116 with tags, fused parts or gaps isoform P01116-2 G12D): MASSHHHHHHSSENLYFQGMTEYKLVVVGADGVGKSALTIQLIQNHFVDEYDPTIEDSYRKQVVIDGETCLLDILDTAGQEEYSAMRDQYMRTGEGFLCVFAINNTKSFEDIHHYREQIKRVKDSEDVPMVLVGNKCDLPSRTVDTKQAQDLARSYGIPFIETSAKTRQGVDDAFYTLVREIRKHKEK
Method: (§1) Procedure for SOS-Catalyzed Nucleotide Exchange Assay for KRAS-G12C/D/V/WT (Procedure B)
(§2) Recombinant KRAS G12C (amino acids 1-169, SEQ ID NO:9), KRAS G12D (amino acids 1-169, SEQ ID NO: 10), KRAS G12V (amino acids 1-169, SEQ ID NO: 11), KRAS WT (amino acids 1-169, SEQ ID NO:12) and SOS1 (amino acids 564-1049, SEQ ID NO: 13) proteins were expressed in E. coli and purified by affinity chromatography. To prepare each BODIPY™ FL GDP-bound KRAS protein, 50 μM KRAS proteins were incubated with 0.5 mM BODIPY™ FL GDP (Invitrogen, G22360) in a loading buffer (20 mM Tris-HCl pH 7.5, 50 mM NaCl, 1 mM DTT and 2.5 mM EDTA) for 1 hour on ice. After the incubation, MgCl2 was added to a final concentration of 10 mM, followed by an incubation at room temperature for 30 minutes. The mixtures were allowed to pass through a NAP-5 column to remove free nucleotides and purified BODIPY™ FL GDP-bound KRAS G12C, G12D, G12V and WT proteins were used for compound evaluation.
(§3) The inhibitory activity of compounds on recombinant KRAS is measured by the displacement of the bound BODIPY™ GDP. Specifically, 2.5 nM of each BODIPY™ FL GDP-bound KRAS complex was incubated with various concentrations of compound in a reaction buffer (20 mM Tris-HCl pH 7.5, 100 mM NaCl, 1 mM MgCl2, 2 mM DTT, 0.1% Tween 20) at 25° C. for 1 hour. After the incubation, recombinant SOS1 and GMPPNP (Jena Bioscience GmbH, NU-401) were added and incubated at room temperature for 30 minutes to proceed SOS1-dependent GDP-GTP exchange reaction on KRAS. Displacement of BODIPY™ FL GDP by Guanosine-5′-[(β,γ)-imido]triphosphate, Tetralithium salt (GMPPNP) was measured by calculating the ratio of fluorescence intensities of BODIPY™ FL before and after the exchange reaction. Percent Inhibition was calculated by setting the fluorescence ratio from the reaction without test compound (DMSO control) and the fluorescence ratio from the reaction without SOS1 and GMPPNP as 0% and 100% inhibition, respectively. Dose response curves were analyzed using a 4-parameter logistic model to calculate IC50 values.

[2] = biological target: T2, KRAS WT (amino acids 1-169) (Homo sapiens, UniProt P01116); test: SOS-catalyzed nucleotide exchange assay (Procedure B, BODIPY FL GDP displacement), KRAS WT; conditions: read-out: KRAS WT GNE IC50
T2 construct: made in house; host or cells: E. coli
T2 sequence (P01116 with tags, fused parts or gaps isoform P01116-2): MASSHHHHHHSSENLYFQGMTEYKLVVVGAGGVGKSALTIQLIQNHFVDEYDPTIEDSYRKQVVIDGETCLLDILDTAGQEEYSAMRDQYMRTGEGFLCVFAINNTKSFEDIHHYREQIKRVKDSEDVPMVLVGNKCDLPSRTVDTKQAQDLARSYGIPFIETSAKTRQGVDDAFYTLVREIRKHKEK
Method: as §1, §2, §3

[3] = biological target: T3, KRAS G12C (amino acids 1-169) (Homo sapiens, UniProt P01116, G12C); test: SOS-catalyzed nucleotide exchange assay (Procedure B, BODIPY FL GDP displacement), KRAS G12C; conditions: read-out: KRAS G12C GNE IC50
T3 construct: made in house; host or cells: E. coli
T3 sequence (P01116 with tags, fused parts or gaps isoform P01116-2 G12C): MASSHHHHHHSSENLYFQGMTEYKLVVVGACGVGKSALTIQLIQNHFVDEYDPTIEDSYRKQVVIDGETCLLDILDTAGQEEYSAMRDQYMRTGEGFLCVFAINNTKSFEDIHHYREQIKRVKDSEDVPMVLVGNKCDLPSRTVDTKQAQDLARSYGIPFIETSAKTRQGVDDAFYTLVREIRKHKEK
Method: as §1, §2, §3

[4] = biological target: T4, KRAS G12V (amino acids 1-169) (Homo sapiens, UniProt P01116, G12V); test: SOS-catalyzed nucleotide exchange assay (Procedure B, BODIPY FL GDP displacement), KRAS G12V; conditions: read-out: KRAS G12V GNE IC50
T4 construct: made in house; host or cells: E. coli
T4 sequence (P01116 with tags, fused parts or gaps isoform P01116-2 G12V): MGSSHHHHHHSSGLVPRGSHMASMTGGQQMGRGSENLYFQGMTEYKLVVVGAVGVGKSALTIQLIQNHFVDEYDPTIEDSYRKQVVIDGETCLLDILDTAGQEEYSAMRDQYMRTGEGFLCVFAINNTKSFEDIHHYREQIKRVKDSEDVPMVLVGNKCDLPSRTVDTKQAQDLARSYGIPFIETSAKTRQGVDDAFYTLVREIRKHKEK
Method: as §1, §2, §3

| SMILES | pIC50 [1] | pIC50 [2] | pIC50 [3] | pIC50 [4] |
| --- | --- | --- | --- | --- |
| C[C@@]1(O)COCCN(c2nc(OC[C@@]34CCCN3C[C@H](F)C4)nc3sc4c(-c5c6c(cc7[nH]ncc57)CCC6C5CC5)nccc4c23)C1 (stereo partly drawn) [Ex-104, (6S)-4-(8-(5-cyclopropyl-1,5,6,7-tetrahydrocyclopenta[f]in-dazol-4-yl)-2-(((2R,7aS)-2-fluorotetrahydro-1H-pyrrolizin-7a(5H)-yl)methoxy)pyrido[4′,3′:4,5]thieno[2,3-d]pyrimidin-4-yl)-6-methyl-1,4-oxazepan-6-ol] | 7.36 | 7.15 | 6.77 | 7.22 |
| C[C@@]1(O)COCCN(c2nc(OC[C@@]34CCCN3C[C@H](F)C4)nc3sc4c(-c5c(C6(F)CC6)c(C6CC6)cc6[nH]ncc56)nccc4c23)C1 [Ex-57, (6S)-4-(8-(6-cyclopropyl-5-(1-fluorocyclopropyl)-1H-indazol-4-yl)-2-(((2R,7aS)-2-fluorotetrahydro-1H-pyrrolizin-7a(5H)-yl)methoxy)pyrido[4′,3′: 4,5]thieno[2,3-d]pyrimidin-4-yl)-6-methyl-1,4-oxazepan-6-ol] | 7.57 | 7.53 | 7.20 | 7.38 |
| C[C@@]1(O)COCCN(c2nc(OC[C@@]34CCCN3C[C@H](F)C4)nc3sc4c(-c5c(-c6cnco6)c(Cl)cc6[nH]ncc56)nccc4c23)C1 [Ex-75, (6S)-4-(8-(6-chloro-5-(oxazol-5-yl)-1H-indazol-4-yl)-2-(((2R,7aS)-2-fluorotetrahydro-1H-pyrrolizin-7a(5H)-yl)methoxy)pyrido[4′,3′:4,5]thi-eno[2,3-d]pyrimidin-4-yl)-6-methyl-1,4-oxazepan-6-ol] | 7.71 | 7.22 | 7.25 | 6.93 |
| C[C@@]1(O)COCCN(c2nc(OC[C@@]34CCCN3C[C@H](F)C4)nc3sc4c(-c5c6c(cc7[nH]ncc57)CCC6=O)nccc4c23)C1 [Ex-89, 4-(2-(((2R,7aS)-2-fluorotetrahydro-1H-pyrrolizin-7a(5H)-yl)methoxy)-4-((S)-6-hydroxy-6-methyl-1,4-oxazepan-4-yl)pyrido[4′,3′:4,5]thieno [2,3-d]pyrimidin-8-yl)-6,7-dihydrocyclopenta[f]inda-zol-5(1H)-one] | 7.10 | 6.77 | 6.86 | 6.61 |
| Cc1cc2[nH]ncc2c(-c2nccc3c2sc2nc(OC[C@@]45CCCN4C[C@H](F)C5)nc(N4CCOC[C@@](C)(O)C4)c23)c1C(C)C [Ex-137, (6S)-4-(2-(((2R, 7aS)-2-fluorotetra-hydro-1H-pyrrol-izin-7a(5H)-yl)meth-oxy)-8-(5-isopropyl-6-methyl-1H-ind-azol-4-yl)pyrido [4′,3′:4,5]thieno[2,3-d]pyrimidin-4-yl)-6-methyl-1,4-oxaze-pan-6-ol] | 7.49 | 7.24 | 7.40 | 7.18 |
| CC1(F)c2c(cc3[nH]ncc3c2-c2nccc3c2sc2nc(OC[C@@]45CCCN4C[C@H](F)C5)nc(N4CCOC[C@@](C)(O)C4)c23)CC1(F)F (single isomer, unassigned) [Ex-99] | 7.56 | 7.25 | 7.28 | 7.18 |

Now those with a higher pIC50 [1], led by results:

| pIC50 [1] | pIC50 [2] | pIC50 [3] | pIC50 [4] | SMILES |
| --- | --- | --- | --- | --- |
| 8.37 | 7.87 | 8.23 | 7.90 | C[C@@]1(O)COCCN(c2nc(OC[C@@]34CCCN3C[C@H](F)C4)nc3sc4c(-c5c(-c6ccco6)c(Cl)cc6[nH]ncc56)nncc4c23)C1 [Ex-282] |
| 7.73 | 7.47 | 7.35 | 7.42 | C[C@@]1(O)COCCN(c2nc(OC[C@@]34CCCN3C[C@H](F)C4)nc3sc4c(-c5c6c(cc7[nH]ncc57)CCC6)nccc4c23)C1 [Ex-111, (6S)-4-(2-(((2R,7aS)-2-fluorotetrahydro-1H-pyrrolizin-7a(5H)-yl)methoxy)-8-(1,5,6,7-tetrahydrocyclopenta[f]in-dazol-4-yl)pyrido[4′,3′:4,5]thieno [2,3-d]pyrimidin-4-yl)-6-methyl-1,4-oxazepan-6-ol] |
| 8.78 | 8.50 | 8.15 | 8.43 | C=CC1CCc2cc3[nH]ncc3c(-c3nccc4c3sc3nc(OC[C@@]56CCCN5C[C@H](F)C6)nc(N5CCOC[C@@](C)(O)C5)c34)c21 (single isomer, unassigned) [Ex-93] |
| 8.70 | 8.40 | 8.19 | 8.29 | CC1CC(F)(F)c2cc3[nH]ncc3c(-c3nccc4c3sc3nc(OC[C@@]56CCCN5C[C@H](F)C6)nc(N5CCOC[C@@](C)(O)C5)c34)c21 (stereo partly drawn) [Ex-101, (6S)-4-(8-(7,7-difluoro-5-methy1-1,5,6,7-tetrahydrocyclopenta[f]in-dazol-4-yl)-2-(((2R,7aS)-2-fluorotetrahydro-1H-pyrrolizin-7a(5H)-yl)methoxy)pyrido[4′,3′:4,5]thi-eno[2,3-d]pyrimidin-4-yl)-6-methyl-1,4-oxazepan-6-ol] |
| 8.50 | 8.08 | 8.01 | 8.14 | COCC1CCc2cc3[nH]ncc3c(-c3nccc4c3sc3nc(OC[C@@]56CCCN5C[C@H](F)C6)nc(N5CCOC[C@@](C)(O)C5)c34)c21 (single isomer, unassigned) [Ex-97] |
